What was measured:
Conditions in all cases: incubation time: 72 h
CAL-85-1 [1] = experiment: normalised response (% of control), CellTiter-Glo; higher = more viable cells (100 = DMSO, 0 = benzethonium chloride kill control)
Description: (§1)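 DSRT, 72 h incubation, CellTox Green / CellTiter-Glo readout. Signal is normalised to DMSO and benzethonium chloride controls. Value is the normalised response at dose 3.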

CAL-148 [2] = experiment: as above
Description: as §1

SK-BR-3 = experiment: as above
Description: as §1

HDQ-P1 [3] = experiment: as above
Description: as §1

CAL-51 [4] = experiment: as above
Description: as §1

BT-474 [5] = experiment: as above
Description: as §1

MDA-MB-468 [6] = experiment: as above
Description: as §1

MDA-MB-231 [7] = experiment: as above
Description: as §1

BT-549 [8] = experiment: as above
Description: as §1

MDA-MB-436 [9] = experiment: as above
Description: as §1

MCF-10A [10] = experiment: as above
Description: as §1

HCC1937 [11] = experiment: as above
Description: as §1

DU-4475 [12] = experiment: as above
Description: as §1

HCC1599 [13] = experiment: as above
Description: as §1

CAL-120 [14] = experiment: as above
Description: as §1

MDA-MB-453 [15] = experiment: as above
Description: as §1

MFM-223 [16] = experiment: as above
Description: as §1

HCC1143 [17] = experiment: as above
Description: as §1

Hs578T [18] = experiment: as above
Description: as §1

HDQ-P1 [19] = experiment: normalised response (% of control), CellTox Green; higher = less cell death (100 = DMSO, 0 = benzethonium chloride kill control)
Summary of the method: (§2)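 For each plate, 0.1 % DMSO was set to 100 and a positive kill control to 0. Breast cancer cell lines (20 µl suspension) were seeded into 384-well plates already holding compound at 5 concentrations in 10-fold steps over a 10,000-fold range chosen per compound, and incubated for 72 h. CellTox Green fluorescence at 485/520 nm was read before CellTiter-Glo luminescence, which followed 10 min at room temperature. Each value is the normalised signal at one concentration.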

CAL-51 [20] = experiment: as above
Summary of the method: as §2

BT-474 [21] = experiment: as above
Summary of the method: as §2

MDA-MB-468 [22] = experiment: as above
Summary of the method: as §2

MDA-MB-231 [23] = experiment: as above
Summary of the method: as §2

BT-549 [24] = experiment: as above
Summary of the method: as §2

MDA-MB-436 [25] = experiment: as above
Summary of the method: as §2

MCF-10A [26] = experiment: as above
Summary of the method: as §2

HCC1937 [27] = experiment: as above
Summary of the method: as §2

DU-4475 [28] = experiment: as above
Summary of the method: as §2

HCC1599 [29] = experiment: as above
Summary of the method: as §2

CAL-120 [30] = experiment: as above
Summary of the method: as §2

MDA-MB-453 [31] = experiment: as above
Summary of the method: as §2

MFM-223 [32] = experiment: as above
Summary of the method: as §2

HCC1143 [33] = experiment: as above
Summary of the method: as §2

Hs578T [34] = experiment: as above
Summary of the method: as §2

CAL-85-1 [35] = experiment: as above
Summary of the method: as §2

CAL-148 [36] = experiment: as above
Summary of the method: as §2

Row | Structure (SMILES) | normalised response (CAL-85-1 [1]) | normalised response (CAL-148 [2]) | normalised response (SK-BR-3) | normalised response (HDQ-P1 [3]) | normalised response (CAL-51 [4]) | normalised response (BT-474 [5]) | normalised response (MDA-MB-468 [6]) | normalised response (MDA-MB-231 [7]) | normalised response (BT-549 [8]) | normalised response (MDA-MB-436 [9]) | normalised response (MCF-10A [10]) | normalised response (HCC1937 [11]) | normalised response (DU-4475 [12]) | normalised response (HCC1599 [13]) | normalised response (CAL-120 [14]) | normalised response (MDA-MB-453 [15]) | normalised response (MFM-223 [16]) | normalised response (HCC1143 [17]) | normalised response (Hs578T [18]) | normalised response (HDQ-P1 [19]) | normalised response (CAL-51 [20]) | normalised response (BT-474 [21]) | normalised response (MDA-MB-468 [22]) | normalised response (MDA-MB-231 [23]) | normalised response (BT-549 [24]) | normalised response (MDA-MB-436 [25]) | normalised response (MCF-10A [26]) | normalised response (HCC1937 [27]) | normalised response (DU-4475 [28]) | normalised response (HCC1599 [29]) | normalised response (CAL-120 [30]) | normalised response (MDA-MB-453 [31]) | normalised response (MFM-223 [32]) | normalised response (HCC1143 [33]) | normalised response (Hs578T [34]) | normalised response (CAL-85-1 [35]) | normalised response (CAL-148 [36])
1 | CN[C@@H](C)C(=O)N[C@H]1CN(C(=O)CC(C)C)CC[C@H]2CC[C@@H](C(=O)NC(c3ccccc3)c3ccccc3)N2C1=O [AT-406] (100 nM) | 86.6% | 102% | 99.9% | 95.9% | 109% | 54% | 103% | 63.9% | 47.4% | 105% | 111% | 103% | 102% | 79.1% | 92.5% | 89.8% | 102% | 103% | 100% | 86.4% | 96.3% | 94.9% | 114% | 35.2% | 68.8% | 76.2% | 101% | 95.2% | 104% | 101% | 83% | 102% | 104% | 70.4% | 97.2% | – | –
2 | Cc1cc(Nc2nc(N[C@@H](C)c3ncc(F)cn3)ncc2Cl)[nH]n1 [AZD1480] (10 nM) | 103% | 93.5% | 97% | 97.1% | 114% | 99.9% | 104% | 96.1% | 102% | 106% | 92.3% | 98.9% | 93.9% | 107% | 98.4% | 88.9% | 96% | 103% | 92.2% | 97.8% | 111% | 98.2% | 136% | 95.6% | 65.3% | 73.2% | – | 92.2% | 96.6% | 99.4% | 95.6% | 98.8% | 96.4% | 106% | 109% | 108% | 66.3%
3 | CNC(=O)c1ccccc1Sc1ccc2c(/C=C/c3ccccn3)n[nH]c2c1 [Axitinib] (100 nM) | 109% | 112% | 103% | 102% | 81.6% | 104% | 93.8% | 111% | 107% | 102% | 100% | 97.8% | 111% | 101% | 104% | 110% | 90.5% | 102% | 98.5% | 116% | 107% | 102% | 132% | 105% | 113% | – | 98.7% | 102% | 104% | 113% | 99.2% | 110% | 96% | 105% | 111% | 104% | 108%
4 | CC(O)(CS(=O)(=O)c1ccc(F)cc1)C(=O)Nc1ccc(C#N)c(C(F)(F)F)c1 (stereo not drawn) [Bicalutamide] (100 nM) | 98.9% | 110% | 113% | 100% | 80.7% | 108% | 105% | 117% | 102% | 107% | 106% | 100% | 105% | 103% | 105% | 114% | 107% | 103% | 96.7% | 115% | 98.3% | 102% | 131% | 110% | 85% | 108% | 85.1% | 106% | 100% | 116% | 99.5% | 108% | 89.8% | 107% | 90.6% | 95.9% | 102%
5 | CC1(COc2ccc3c(c2)ncn3-c2ccc3cccc(N4CCC(N)CC4)c3n2)COC1 [Crenolanib] (100 nM) | 112% | 107% | 114% | 105% | 77.8% | 108% | 107% | 113% | 103% | 103% | 110% | 102% | 104% | 110% | 97.9% | 112% | 104% | 109% | 103% | 105% | 90.2% | 103% | 99.6% | 120% | 89.1% | – | 95.4% | 80.2% | 103% | 99.3% | 97.2% | 108% | 94.3% | – | 107% | 104% | 82.2%
6 | Cn1cc(C2=C(c3cn(C4CCN(Cc5ccccn5)CC4)c4ccccc34)C(=O)NC2=O)c2ccccc21 [Enzastaurin] (100 nM) | 107% | 106% | 104% | 94% | 65% | 103% | 96.9% | 103% | 98.3% | 102% | 101% | 101% | 99.4% | 90.6% | 99.1% | 105% | 106% | 103% | 98.2% | 114% | 104% | 101% | 56.9% | 102% | 95.4% | 86% | 104% | 102% | 104% | 115% | 104% | 102% | 107% | – | 111% | 99.2% | 95%
7 | CC(=O)[C@]1(O)Cc2c(O)c3c(c(O)c2[C@@H](O[C@H]2C[C@H](N)[C@H](O)[C@H](C)O2)C1)C(=O)c1ccccc1C3=O [Idarubicin] (10 nM) | 105% | 102% | 105% | 101% | 73.7% | 98.7% | 92.9% | 109% | 89.7% | 95.9% | 100% | 99.2% | 96% | 118% | 106% | 110% | 107% | 109% | 94.5% | 105% | 79.8% | 99.2% | 118% | 106% | 83.3% | 96% | – | 55.8% | 100% | 113% | 97.7% | 104% | 97.6% | 114% | 114% | 97.7% | 93%
8 | CO[C@@H]1[C@H](N(C)C(=O)c2ccccc2)C[C@H]2O[C@]1(C)n1c3ccccc3c3c4c(c5c6ccccc6n2c5c31)C(=O)NC4 [Midostaurin] (100 nM) | 99% | 114% | 98.4% | 95.9% | 89.7% | 85.3% | 92.4% | 85.8% | 93.4% | 102% | 68.7% | 85.5% | 96.9% | 99.6% | 88.5% | 94.3% | 98.8% | 95.3% | 83.3% | 103% | 74.1% | 96.4% | 137% | 91.2% | 88.8% | 93.9% | 108% | – | 94.6% | 94.5% | 74.9% | 102% | 103% | 88.6% | 67% | 95.8% | 97.8%
9 | O=[N+]([O-])c1ccc2c(c1)S(=O)(=O)C=C2 [Stattic] (500 nM) | 99.5% | 98.3% | 106% | 100% | 99% | 94.5% | 45.6% | 90.8% | 85.3% | 100% | 106% | 94.3% | 102% | 103% | 98.2% | 85.2% | 96.8% | 104% | 96.5% | 104% | 108% | 101% | 133% | 107% | 102% | 95.3% | 106% | – | 107% | 95.4% | 99.8% | 103% | 96.9% | 81.2% | 89.2% | 98.8% | 102%

Reference: the supplement of paper PMC4862054
